The supplement of paper PMC13380429

What was measured:
HepG2 [1] = test: drug sensitivity score (DSS) for viability; higher = more toxic; extreme values may be limits of the assay; settings: 72 h
U2OS [2] = test: as above; settings: 72 h
Vero E6 [3] = test: as above; settings: 72 h
Caco-2 [4] = test: as above; settings: 72 h
Calu-3 [5] = test: as above; settings: 72 h
HepG2 [6] = test: relative viability EC50 (midpoint between 100% and the lowest measured viability); higher = less toxic; settings: 72 h
U2OS [7] = test: as above; settings: 72 h
Vero E6 [8] = test: as above; settings: 72 h
Caco-2 [9] = test: as above; settings: 72 h
Calu-3 [10] = test: as above; settings: 72 h
A549-ACE2 [11] = test: drug-induced phospholipidosis relative to tamoxifen; higher = more phospholipidosis
[12] = tested on: A549-ACE2 infected with SARS-CoV-2; test: morphology score (similarity to uninfected cells); higher = more like uninfected cells; settings: 24 h
[13] = tested on: A549-ACE2 infected with SARS-CoV-2; test: cell count relative to DMSO; higher = less toxic; settings: 24 h
[14] = tested on: A549-ACE2 infected with SARS-CoV-2; test: SARS-CoV-2 infection rate relative to DMSO; higher = more infection; settings: 24 h
A549-ACE2 [15] = test: phospholipidosis EC50; higher = less potent phospholipidosis inducer
HepG2 [16] = test: cell viability relative to DMSO; higher = less toxic; settings: 72 h
U2OS [17] = test: as above; settings: 72 h
Vero E6 [18] = test: as above; settings: 72 h
Caco-2 [19] = test: as above; settings: 72 h
Calu-3 [20] = test: as above; settings: 72 h

Cc1cc(Nc2ncc(Cl)c(Nc3ccccc3S(=O)(=O)C(C)C)n2)c(OC(C)C)cc1C1CCNCC1 [ceritinib]
Settings	drug sensitivity score	relative viability EC50 [µM]
Caco-2 [4]	7.7	–
Caco-2 [9]	–	1.82
Calu-3 [5]	7.6	–
Calu-3 [10]	–	2.15
HepG2 [1]	9.7	–
HepG2 [6]	–	1.44
U2OS [2]	7.5	–
U2OS [7]	–	2.01
Vero E6 [3]	5.2	–
Vero E6 [8]	–	2.78

drug-induced phospholipidosis [%], A549-ACE2 [11]
Settings	0.3 µM	0.833333 µM	3.33333 µM	6.66667 µM	10 µM	30 µM
24 h	9.71	10.9	62	78.4	87.3	66.3
48 h	12.5	7.38	84.3	87.6	93	69.7
72 h	11.3	5.24	83.1	–	–	–

Settings	SARS-CoV-2 infection rate [%]	cell count [%]	cell viability [%]	morphology score	phospholipidosis EC50 [µM]
A549-ACE2 [15], 24 h	–	–	–	–	2.94
A549-ACE2 [15], 48 h	–	–	–	–	1.79
Caco-2 [19], 1 nM	–	–	99.3	–	–
Caco-2 [19], 10 nM	–	–	88.1	–	–
Caco-2 [19], 100 nM	–	–	107	–	–
Caco-2 [19], 1000 nM	–	–	83.7	–	–
Caco-2 [19], 10000 nM	–	–	10.1	–	–
Calu-3 [20], 1 nM	–	–	102	–	–
Calu-3 [20], 10 nM	–	–	108	–	–
Calu-3 [20], 100 nM	–	–	102	–	–
Calu-3 [20], 1000 nM	–	–	87.5	–	–
Calu-3 [20], 10000 nM	–	–	0.5	–	–
HepG2 [16], 1 nM	–	–	94.5	–	–
HepG2 [16], 10 nM	–	–	91.3	–	–
HepG2 [16], 100 nM	–	–	106	–	–
HepG2 [16], 1000 nM	–	–	71.4	–	–
HepG2 [16], 10000 nM	–	–	0.2	–	–
U2OS [17], 1 nM	–	–	97.7	–	–
U2OS [17], 10 nM	–	–	92.8	–	–
U2OS [17], 100 nM	–	–	97.3	–	–
U2OS [17], 1000 nM	–	–	86.2	–	–
U2OS [17], 10000 nM	–	–	5.7	–	–
Vero E6 [18], 1 nM	–	–	99.4	–	–
Vero E6 [18], 10 nM	–	–	101	–	–
Vero E6 [18], 100 nM	–	–	97.9	–	–
Vero E6 [18], 1000 nM	–	–	95.9	–	–
Vero E6 [18], 10000 nM	–	–	17	–	–
[12], 0.1 µM	–	–	–	0.01	–
[12], 0.3 µM	–	–	–	0.04	–
[12], 1 µM	–	–	–	0.56	–
[12], 3 µM	–	–	–	0.69	–
[13], 0.1 µM	–	104	–	–	–
[13], 0.3 µM	–	100	–	–	–
[13], 1 µM	–	97	–	–	–
[13], 3 µM	–	90	–	–	–
[14], 0.1 µM	110	–	–	–	–
[14], 0.3 µM	96	–	–	–	–
[14], 1 µM	65	–	–	–	–
[14], 3 µM	44	–	–	–	–

CN(C)CCCCC(=O)Nc1ccc(NC(=S)NC(=O)c2ccc(C(C)(C)C)cc2)cc1 [tenovin-6]
Settings	drug sensitivity score	relative viability EC50 [µM]
Caco-2 [4]	5.7	–
Caco-2 [9]	–	2.68
Calu-3 [5]	6	–
Calu-3 [10]	–	2.77
HepG2 [1]	7.3	–
HepG2 [6]	–	2.24
U2OS [2]	5.2	–
U2OS [7]	–	3.24
Vero E6 [3]	3.8	–
Vero E6 [8]	–	3.37

drug-induced phospholipidosis [%], A549-ACE2 [11]
Settings	0.3 µM	0.833333 µM	3.33333 µM	6.66667 µM	10 µM
24 h	-1.65	-1.47	61.4	90.4	56.6
48 h	1.91	0.33	30	–	–
72 h	0.744	-3.12	26.8	–	–

Settings	SARS-CoV-2 infection rate [%]	cell count [%]	cell viability [%]	morphology score	phospholipidosis EC50 [µM]
A549-ACE2 [15], 24 h	–	–	–	–	2.91
Caco-2 [19], 1 nM	–	–	92.9	–	–
Caco-2 [19], 10 nM	–	–	100	–	–
Caco-2 [19], 100 nM	–	–	98.5	–	–
Caco-2 [19], 1000 nM	–	–	94.6	–	–
Caco-2 [19], 10000 nM	–	–	12.2	–	–
Calu-3 [20], 1 nM	–	–	91.1	–	–
Calu-3 [20], 10 nM	–	–	107	–	–
Calu-3 [20], 100 nM	–	–	101	–	–
Calu-3 [20], 1000 nM	–	–	95.1	–	–
Calu-3 [20], 10000 nM	–	–	4.2	–	–
HepG2 [16], 1 nM	–	–	107	–	–
HepG2 [16], 10 nM	–	–	101	–	–
HepG2 [16], 100 nM	–	–	110	–	–
HepG2 [16], 1000 nM	–	–	88.8	–	–
HepG2 [16], 10000 nM	–	–	0.8	–	–
U2OS [17], 1 nM	–	–	94	–	–
U2OS [17], 10 nM	–	–	97.9	–	–
U2OS [17], 100 nM	–	–	96.3	–	–
U2OS [17], 1000 nM	–	–	101	–	–
U2OS [17], 10000 nM	–	–	5.4	–	–
Vero E6 [18], 1 nM	–	–	99.4	–	–
Vero E6 [18], 10 nM	–	–	96.7	–	–
Vero E6 [18], 100 nM	–	–	104	–	–
Vero E6 [18], 1000 nM	–	–	103	–	–
Vero E6 [18], 10000 nM	–	–	27.8	–	–
[12], 0.1 µM	–	–	–	0.22	–
[12], 0.3 µM	–	–	–	0.15	–
[12], 1 µM	–	–	–	-0.08	–
[12], 3 µM	–	–	–	0.8	–
[13], 0.1 µM	–	100	–	–	–
[13], 0.3 µM	–	102	–	–	–
[13], 1 µM	–	98	–	–	–
[13], 3 µM	–	113	–	–	–
[14], 0.1 µM	91	–	–	–	–
[14], 0.3 µM	90	–	–	–	–
[14], 1 µM	93	–	–	–	–
[14], 3 µM	23	–	–	–	–

Cn1c(NC[C@@H](N)Cc2ccccc2)nc(-c2ccncc2)c(-c2ccc3ccccc3c2)c1=O [AMG-548]
Settings	drug sensitivity score	relative viability EC50 [µM]
Caco-2 [4]	2.8	–
HepG2 [1]	0.9	–
U2OS [2]	2.3	–
U2OS [7]	–	> 10
Vero E6 [3]	0.3	–
Vero E6 [8]	–	> 10

drug-induced phospholipidosis [%], A549-ACE2 [11]
Settings	0.3 µM	0.833333 µM	3.33333 µM	6.66667 µM	10 µM	30 µM
24 h	-3.67	-2.85	6.77	44.3	80.5	129
48 h	-2.54	-2.01	5.31	39.9	73.3	125
72 h	-1.85	-0.623	7.44	37.6	80.8	151

Settings	SARS-CoV-2 infection rate [%]	cell count [%]	cell viability [%]	morphology score	phospholipidosis EC50 [µM]
A549-ACE2 [15], 24 h	–	–	–	–	8.48
A549-ACE2 [15], 48 h	–	–	–	–	9.02
A549-ACE2 [15], 72 h	–	–	–	–	9.93
Caco-2 [19], 1 nM	–	–	96.8	–	–
Caco-2 [19], 10 nM	–	–	87.9	–	–
Caco-2 [19], 100 nM	–	–	102	–	–
Caco-2 [19], 1000 nM	–	–	89.5	–	–
Caco-2 [19], 10000 nM	–	–	69.9	–	–
HepG2 [16], 1 nM	–	–	106	–	–
HepG2 [16], 10 nM	–	–	108	–	–
HepG2 [16], 100 nM	–	–	101	–	–
HepG2 [16], 1000 nM	–	–	104	–	–
HepG2 [16], 10000 nM	–	–	72.4	–	–
U2OS [17], 1 nM	–	–	101	–	–
U2OS [17], 10 nM	–	–	94.2	–	–
U2OS [17], 100 nM	–	–	93.1	–	–
U2OS [17], 1000 nM	–	–	85.3	–	–
U2OS [17], 10000 nM	–	–	76.3	–	–
Vero E6 [18], 1 nM	–	–	106	–	–
Vero E6 [18], 10 nM	–	–	104	–	–
Vero E6 [18], 100 nM	–	–	99.2	–	–
Vero E6 [18], 1000 nM	–	–	89	–	–
Vero E6 [18], 10000 nM	–	–	97.2	–	–
[12], 0.3 µM	–	–	–	-0.14	–
[12], 3 µM	–	–	–	0.22	–
[12], 10 µM	–	–	–	0.82	–
[12], 30 µM	–	–	–	0.53	–
[13], 0.3 µM	–	93	–	–	–
[13], 3 µM	–	110	–	–	–
[13], 10 µM	–	123	–	–	–
[13], 30 µM	–	106	–	–	–
[14], 0.3 µM	99	–	–	–	–
[14], 3 µM	71	–	–	–	–
[14], 10 µM	27	–	–	–	–
[14], 30 µM	11	–	–	–	–

Cc1c(O)cccc1C(=O)N[C@@H](CSc1ccccc1)[C@H](O)CN1C[C@H]2CCCC[C@H]2C[C@H]1C(=O)NC(C)(C)C [nelfinavir]
Settings	drug sensitivity score	relative viability EC50 [µM]
Caco-2 [4]	5.8	–
Calu-3 [5]	0	–
Calu-3 [10]	–	> 10
HepG2 [1]	1.8	–
HepG2 [6]	–	> 10
U2OS [2]	0	–
U2OS [7]	–	> 10
Vero E6 [3]	0	–
Vero E6 [8]	–	> 10

drug-induced phospholipidosis [%], A549-ACE2 [11]
Settings	0.3 µM	0.833333 µM	3.33333 µM	6.66667 µM	10 µM	30 µM
24 h	1.63	2.14	9.03	22.8	35.3	64.7
48 h	1.06	-2.76	10.6	21.3	40.6	–
72 h	1.29	-2.99	4.63	19.4	37	–

Settings	SARS-CoV-2 infection rate [%]	cell count [%]	cell viability [%]	morphology score	phospholipidosis EC50 [µM]
A549-ACE2 [15], 24 h	–	–	–	–	11.6
Caco-2 [19], 1 nM	–	–	104	–	–
Caco-2 [19], 10 nM	–	–	93.4	–	–
Caco-2 [19], 100 nM	–	–	95.1	–	–
Caco-2 [19], 1000 nM	–	–	70.1	–	–
Caco-2 [19], 10000 nM	–	–	78.7	–	–
Calu-3 [20], 1 nM	–	–	101	–	–
Calu-3 [20], 10 nM	–	–	87.1	–	–
Calu-3 [20], 100 nM	–	–	137	–	–
Calu-3 [20], 1000 nM	–	–	109	–	–
Calu-3 [20], 10000 nM	–	–	86.7	–	–
HepG2 [16], 1 nM	–	–	107	–	–
HepG2 [16], 10 nM	–	–	96.7	–	–
HepG2 [16], 100 nM	–	–	89.5	–	–
HepG2 [16], 1000 nM	–	–	90.2	–	–
HepG2 [16], 10000 nM	–	–	76.4	–	–
U2OS [17], 1 nM	–	–	98.2	–	–
U2OS [17], 10 nM	–	–	92.5	–	–
U2OS [17], 100 nM	–	–	96.8	–	–
U2OS [17], 1000 nM	–	–	93.5	–	–
U2OS [17], 10000 nM	–	–	86.9	–	–
Vero E6 [18], 1 nM	–	–	105	–	–
Vero E6 [18], 10 nM	–	–	99.7	–	–
Vero E6 [18], 100 nM	–	–	88.6	–	–
Vero E6 [18], 1000 nM	–	–	97.3	–	–
Vero E6 [18], 10000 nM	–	–	93.6	–	–
[12], 0.3 µM	–	–	–	0.27	–
[12], 3 µM	–	–	–	0.2	–
[12], 10 µM	–	–	–	0.69	–
[12], 30 µM	–	–	–	0.42	–
[13], 0.3 µM	–	104	–	–	–
[13], 3 µM	–	96	–	–	–
[13], 10 µM	–	113	–	–	–
[13], 30 µM	–	97	–	–	–
[14], 0.3 µM	95	–	–	–	–
[14], 3 µM	102	–	–	–	–
[14], 10 µM	69	–	–	–	–
[14], 30 µM	10	–	–	–	–
